Measurements: patent publication US20060110456A1, “Method for biocidal and/or biostatic treatment and compositions therefor” (NATIONAL UNIVERSITY OF SINGAPORE, priority 2004, published 2006)
“Also recorded” adds a separate entry of the source. Where a name gives a salt, the structure may show the parent alone.

Tests used:
[1] = system: marine bacteria (ten strains); experiment: Bio-adhesion assay (crystal violet microplate); assay type: cell-based, marine bacteria isolated from Singapore fouling communities; details: for Effect of drugs on adhesion of bacteria: 50 μl of 125 μg ml^−1 drug + 200 μl bacteria, 2 hours
Protocol: The effect of pharmaceuticals on bacterial adhesion was analyzed using a modified microplate method adapted from Shea and Williamson (1990). This method consists of staining the attached bacteria with crystal violet, releasing the stain with sodium desoxycholate, and measuring the resulting absorbance of the crystal violet. The absorbance is proportional to the degree of bacterial adhesion to the surface.
Ten strains of bacteria (strain numbers 1, 4, 9, 14, 18, 20, 27, 28, 29 and 30) were chosen for this study. Flat bottom non-tissue culture treated polystyrene (hydrophobic, Falcon #351172) (referred to as polystyrene) and flat bottom tissue culture treated polystyrene (hydrophilic, Falcon #353072) microplates were used in the analyses. These two types of plates were chosen because they were sterile and offered two different kinds of surfaces to determine the adhesion preferences of the bacteria. Each test was done in duplicate. For the control and blank wells, 50 μl of sterile deionized water were added. For those wells that were to contain drugs, 50 μl of drugs at concentration of 125 μg ml^−1 were added. Then 200 μl of bacteria suspension in sterile seawater, whose absorbance had been adjusted to 0.6 at 600 nm using a spectrophotometer (Beckman), were added. Blanks contained 200 μl of sterile seawater.
The bacteria in suspension were allowed to attach for 2 hours at 28° C. Unattached cells were removed by pipetting out almost all trace of liquid and rinsed three times with 300 μl of sterile seawater each time. The attached cells were stained with 200 μl of crystal violet solution (0.1% w/v) in each well for 5 min. After removing the stain by pipetting, the wells were rinsed twice with 300 μl of sterile deionized water each time. Sodium desoxycholate (200 μl) solution (2% w/v) was then added to each well to extract the crystal violet from the stained cells for 10 min. The absorbance of the extracted solution was read at 590 nm using a microplate reader (Sunrise, Tecan, Switzerland).
The data were analyzed using T-test (Two-sample assuming unequal variances) to determine the significance of the absorbance values of each bacterial strain versus the blanks to determine whether there was adhesion, i.e. increase in absorbance. Each drug effect on adhesion was analyzed by comparing the absorbance of each bacterial strain minus the control blank versus bacteria in presence of drug minus the drug control. When the data is significant, there are bacterial cells attached to the surface in the control but in the presence of drugs, there is no attachment.

Bugula neritina larvae = experiment: Bioassay against bryozoan larvae; assay type: in vivo; details: crude rank, best (1) to worst (8)
Protocol: Bugula neritina (Phylum Bryozoa, Class Gymnolaemata, Order Cheilostomatida) is a cosmopolitan species of bryozoan, commonly found in most marine fouling communities. The larvae are brooded in ovicells found on the stem of the colonies. When released, the larva will settle quickly on most surfaces, within a few minutes. At 24° C., the settled larvae forms the one-cell ancestrula, and after 48 hours, the lophophore has developed and extended for feeding.
Adult colonies of Bugula neritina were collected from fouling communities growing on the submerged pontoons on a floating fish farm located off Changi, Singapore. Adult animals were maintained in the open-circulation aquarium at St John's island marine laboratory, Singapore. The adults were kept in total darkness for 24 hours. On exposure to light, larvae were released after half an hour. […] Because the larvae will settle quickly, larvae were pipetted directly into test wells in 1 ml of seawater using a graduated glass pipette.
4 replicates were done for each treatment. After 24 hours, larvae were scored as settled, swimming or dead/deformed. The assay plates were usually kept for another 24 hours and checked again, to ascertain that the settled larvae had developed into viable colonies with lophophores. Two trials were repeated for each compound.
Bioassays were carried out using the method described above, in July 2003 during the peak spawning season for Bugula.

[2] = system: hard fouling (barnacles, serpulids, spirorbids); experiment: Field testing of coated rods; assay type: in vivo; design: Total hard fouling, difference in mean cover (%), drug vs control / Barnacles, difference in mean cover (%), drug vs control: tested at 25 µg/ml of coating; Serpulids, difference in mean cover (%), drug vs control: tested at 25 µg/ml of coating mix; details: for Overall performance in field assay: crude rank, best (1) to worst (8); for Barnacles, difference in mean cover (%), drug vs VC50 / Serpulids, difference in mean cover (%), drug vs VC50 / Spirorbids, difference in mean cover (%), drug vs VC50 / Total hard fouling, difference in mean cover (%), drug vs VC50: drug + VC50 rods vs VC50 control; for Barnacles, difference in mean cover (%), drug vs control / Serpulids, difference in mean cover (%), drug vs control / Spirorbids, difference in mean cover (%), drug vs control / Total hard fouling, difference in mean cover (%), drug vs control: drug + VC50 rods vs uncoated blank control; for Barnacles Mean cover (%) / Serpulids Mean cover (%) / Spirorbids Mean cover (%) / Total hard fouling Mean cover (%): rods coated with drug + VC50, field test; for Total hard fouling Mean cover (%): percentage cover within 6 mm×50 mm transect
Protocol: Fouling on rods occurs more rapidly than on flat panels, enabling rapid assessment of the performance of coatings.
6 mm diameter glass rods were cut to 150 mm length and prepared prior to coating by baking in a furnace at 150° C. for 24 hours and then cooling in a dessicator.
All pharmaceuticals were obtained in commercially available form. All tablets were reduced to fine powder with a mortar and pestle, and capsules were opened to extract the contents. The amount of drug powder required to attain the desired concentrations for all tests was calculated from product dosage information and then measured by weight on a high-resolution electronic balance. This was added to the coating and mixed thoroughly prior to application to obtain the concentration of 25 ug active ingredient per ml of coating mix.
The commercial antifouling product used to benchmark field experiments was VC Offshore with Teflon® manufactured by International Coatings.
For our experiments, a reduced copper coating (“VC50”) was prepared by mixing approximately 20 g of #YBA779 into 100 ml of #YBA707. The prepared coating was then allowed to stand so that bubbles from the mixing process dissipated. 15 ml centrifuge tubes were filled with 10 mls of prepared coating. Prepared glass rods were then immersed in the coating to a height of 100 mm and then suspended on a frame to air dry until coating cured.
Five replicate rods were tested for every experimental treatment, including controls. Two sets of controls were used, an uncoated blank control and a VC50 control without pharmaceutical additives. Rod were randomly arrayed on plastic vexar mesh attached to PVC frames and suspended at a depth of 10 cm from the water surface. […] Rods were examined visually weekly for the duration of testing, which typically lasts between 6 to 10 weeks. All fouling was scored as percentage cover of each category within a 6 mm×50 mm transect on each rod.

[3] = strain 9 (Bacillus), hydrophobic surface (untreated polystyrene)
[4] = drug at 25 ug per ml of VC50 coating

Compound: CNCCC(Oc1ccc(C(F)(F)F)cc1)c1ccccc1 (stereo not drawn) [PZC, fluoxetine hydrochloride]
- Effect of drugs on adhesion of bacteria ([1]; strain 1 (Rhodovulum), hydrophobic surface (untreated polystyrene)): * (Significantly less adhesion observed: * p < 0.05)
- Effect of drugs on adhesion of bacteria [1, 3]: * (Significantly less adhesion observed: * p < 0.05)
- Prevention of settlement of Bugula larvae (Bugula neritina larvae): 3
- Overall performance in field assay [2]: 6
- Barnacles, difference in mean cover (%), drug vs VC50 [2]: −14%
- Serpulids, difference in mean cover (%), drug vs VC50 [2]: −1.67%
- Spirorbids, difference in mean cover (%), drug vs VC50 [2]: −7.67%
- Total hard fouling, difference in mean cover (%), drug vs VC50 [2]: −23.37%
- Barnacles, difference in mean cover (%), drug vs control [2]: −78.34%
- Serpulids, difference in mean cover (%), drug vs control [2]: −6.67%
- Spirorbids, difference in mean cover (%), drug vs control [2]: +3.33%
- Total hard fouling, difference in mean cover (%), drug vs control [2]: −81.67%
- Reduction of total hard fouling cover compared to VC50 alone [2, 4]: ~24%
- Effect of addition of drug on antifouling performance of VC50 coating (total hard fouling) ([2]; drug at 25 ug per ml of VC50 coating, in words): did not significantly improve antifouling performance
- Barnacles Mean cover (%) [2]: 9.33%
- Serpulids Mean cover (%) [2]: 0%
- Spirorbids Mean cover (%) [2]: 9%
- Total hard fouling Mean cover (%) [2]: 18.33%

Compound: Cc1nccn1CC1CCc2c(c3ccccc3n2C)C1=O (stereo not drawn) [ZFN, ondansetron hydrochloride]
- Effect on bacterial adhesion ([1]; polystyrene or tissue culture surface as named in the value, hydrochloride): prevented biofilm formation for almost all strains in the polystyrene surface; also recorded: increased cell adhesion in the tissue culture surface for strain 30
- Effect of drugs on adhesion of bacteria ([1]; strain 4 (Bacillus), hydrophobic surface (untreated polystyrene)): ** (** p < 0.01)
- Effect of drugs on adhesion of bacteria [1, 3]: *** (*** p < 0.005)
- Effect of drugs on adhesion of bacteria ([1]; strain 14 (Vibrio), hydrophobic surface (untreated polystyrene)): * (Significantly less adhesion observed: * p < 0.05)
- Effect of drugs on adhesion of bacteria ([1]; strain 18 (Microbacterium), hydrophobic surface (untreated polystyrene)): * (Significantly less adhesion observed: * p < 0.05)
- Effect of drugs on adhesion of bacteria ([1]; strain 20, hydrophobic surface (untreated polystyrene)): ** (** p < 0.01)
- Effect of drugs on adhesion of bacteria ([1]; strain 27, hydrophobic surface (untreated polystyrene)): *** (*** p < 0.005)
- Effect of drugs on adhesion of bacteria ([1]; strain 28, hydrophobic surface (untreated polystyrene)): *** (*** p < 0.005)
- Effect of drugs on adhesion of bacteria ([1]; strain 29, hydrophobic surface (untreated polystyrene)): * (Significantly less adhesion observed: * p < 0.05)
- Effect of drugs on adhesion of bacteria ([1]; strain 30, hydrophilic surface (tissue culture treated polystyrene)): * (Significantly less adhesion observed: * p < 0.05)
- Effect of drugs on adhesion of bacteria ([1]; strain 30, hydrophobic surface (untreated polystyrene)): * (Significantly less adhesion observed: * p < 0.05)
- Prevention of settlement of Bugula larvae (Bugula neritina larvae): 8
- Total hard fouling, mean cover ([2]; coated rods, 25 ug active ingredient per ml of VC50 coating): 10%
- Performance against spirorbid polychaetes ([2]; coated rods, in words): exclude spirorbid settlement
- Overall performance in field assay [2]: 2
- Barnacles, difference in mean cover (%), drug vs VC50 [2]: −26.33%
- Serpulids, difference in mean cover (%), drug vs VC50 [2]: 0%
- Spirorbids, difference in mean cover (%), drug vs VC50 [2]: −18.66%
- Total hard fouling, difference in mean cover (%), drug vs VC50 [2]: −45%
- Barnacles, difference in mean cover (%), drug vs control [2]: -89.3%
- Serpulids, difference in mean cover (%), drug vs control [2]: −1.66%
- Spirorbids, difference in mean cover (%), drug vs control [2]: +3%
- Total hard fouling, difference in mean cover (%), drug vs control [2]: −88%
- Less spirorbid cover than VC50 [2, 4]: 18.7%
- Reduction in barnacle cover compared to VC50 [2, 4]: 26.3%
- Effect of addition of drug on antifouling performance of VC50 coating (total hard fouling) ([2]; drug at 25 ug per ml of VC50 coating, in words, hydrochloride): increased the antifouling properties of VC50 coating significantly; also recorded: significantly improved the performance of VC50 coating
- Barnacles Mean cover (%) [2]: 3.67%
- Serpulids Mean cover (%) [2]: 1.67%
- Spirorbids Mean cover (%) [2]: 4.67%
- Total hard fouling Mean cover (%) [2]: 10%
